Measured values reported in patent publication US20230092389A1, “UNIT DOSES, AEROSOLS, KITS, AND METHODS FOR TREATING HEART CONDITIONS BY PULMONARY ADMINISTRATION” (InCarda Therapeutics, Inc., priority 2017, published 2023).
Several values for one entry are separate records, joined by “and”; a condition that tells them apart may be missing. Equal entries are not always repeated. Where two headings read alike, the source gives them in different places.

Key:
[1] = system: beagle dogs with induced AF; experiment: Cardioversion of induced AF by IT or IV flecainide, anesthetized dogs (Example 7); type: in vivo; conditions: for Time to NSR, individual animals: cumulative dose 0.75-1.0 mg/kg, animals 001-006
Method: The study was carried out in anesthetized healthy adult beagle dogs with induced AF. Acute AF was induced using the combination of phenylephrine ([…]), to increase heterogeneity of atrial refractory periods via increased loading and through a baroreceptor-mediated increase in parasympathetic efferent activity, and right atrial burst pacing (40-50 Hz for ˜15 min). The AF induced using this method was, in general, stable for more than 30 mins.
The cardiac rhythm was monitored prior to, during AF, and up to 10 min post-dosing and/or until conversion to NSR.

healthy volunteers = experiment: Phase 1 (FLE-001) pharmacodynamics, ECG intervals; type: in vivo, human; conditions: for magnitude of QRS prolongation: 1 min post-inhalation; for magnitude of QRS prolongation / maximal QRS interval prolongation: post-hoc population; for prolongation in PR interval duration: Cohort 3, 60 mg eTLD
Method: The ECG recordings included: 1) Continuous real-time ECG telemetry for observation of patient safety starting at 12 hours pre-dose and continuing for 12 hours post-dose, 2) 12-lead ECGs for immediate review by medical staff to ascertain the safety of the procedures and drug administration were recorded at pre-specified (or any time as needed) before dosing (pre-dose) and after dosing (post-dose), and 3) continuous 12-lead ECG (cECG, iCardiac Holter monitoring) was recorded for 24 hours, starting 1 hour prior to dosing and up to 24 hours post dosing.

[2] = system: pigs with induced atrial fibrillation; experiment: Cardioversion of induced AF by IT flecainide, intact porcine model (Example 6); type: in vivo, Yorkshire pigs
Method: After 30-min recovery, the alternate intervention was tested. Times for conversion to normal sinus rhythm were compared.

[3] = male, Yorkshire, pig, in vivo, iv, 2 mg/kg
Method: The studies were carried out in male Yorkshire pigs (n=9) weighing 36±1.0 kg (mean±SEM). The pigs were pre-anesthetized with telazol (4.7 mg/kg, intramuscular) and subsequently further anesthetized using alpha-chloralose (80 mg/kg, IV bolus, followed by 24 mg/kg/h continuous IV infusion). The animals were intubated and ventilated at a constant rate of 12 breaths/min and tidal volume of 400 ml per stroke.
Simultaneous blood samples were drawn from the pigtail catheter positioned in the LV and from a catheter in the jugular vein.
The samples were centrifuged and frozen at −80° C. until drug level determination was performed using a bioanalytical assay method developed by Climax Laboratories, Inc.

[4] = beagle, dog, in vivo
From the text: After induction of AF, animals were first given vehicle (0.9% NaCl, volume-matched) via IT installation.

[5] = in vivo
From the text: (§1) 3 cohorts of subjects, in total 34 healthy adult volunteers, were recruited for Part A study.
(§2) Part B was an open label non-randomized crossover in a cohort of 6 evaluable healthy adult volunteers.

[6] = system: pigs with induced atrial fibrillation; experiment: ACh and burst-pacing induced AF duration, IT instillation, pigs (Example 5); type: in vivo, Yorkshire pigs; conditions: for AF duration, mean: n=3, no drug 11±0.6
Method: At one min after intrapericardial administration of ACh (1 ml of 100 mM), burst pacing was performed to initiate AF in the control cohort (FIG. 60). In the experimental cohort, after ACh and burst-pacing-induced AF, a stable period of 2 min of AF was allowed (FIG. 60). […] Table 12; FIG. 61).

clinical = conditions: human, in vivo; for Tmax: Tmax (min after EOI)
From the text: as §1, §2

[7] = both, human, inhaled or intranasal, 20 mg
[8] = both, human, inhaled or intranasal, 40 mg
[9] = both, human, inhaled or intranasal, 60 mg
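Wherever Cmax of the two excluded subjects is given: measured in healthy adult volunteers.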
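Wherever Dist. t1/2α is given: measured in healthy adult volunteers.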
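Wherever Elim. t1/2β is given: measured in healthy adult volunteers.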
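Wherever Tmax (min after EOI) is given: measured in healthy adult volunteers.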
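Wherever Tmax in excluded subjects is given: measured in healthy adult volunteers.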
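Wherever Tmax is given: measured in healthy adult volunteers.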
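Wherever concentration-time profile curves, IV normalized to 30 mg vs inhaled 30 mg eTLD is given: measured in healthy adult volunteers.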
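Wherever dose dependence of Cmax and AUCLast is given: measured in healthy adult volunteers.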
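Wherever dose dependence of distribution phase and elimination half-life is given: measured in healthy adult volunteers.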
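Wherever dose proportionality of venous plasma concentrations is given: measured in healthy adult volunteers.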
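Wherever elimination t1/2β is given: measured in healthy adult volunteers.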
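Wherever plasma concentration in subjects with near-equal ΔQRS (12.0 to 16 msec) is given: measured in healthy adult volunteers.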
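Wherever venous plasma concentration-time curves, inhaled vs IV is given: measured in healthy adult volunteers.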

time for plasma concentration to reach levels required for conversion ([2]; IT 0.75 and 1.5 mg/kg (FIG. 66A)): ≤ 10 min
time of peak LV and venous plasma levels [3]: 2 min
Plasma Concentration LV at time of conversion, Mean ± SEM [4]: 1139 ± 380 ng/mL
Plasma Concentration Venous at time of conversion, Mean ± SEM [4]: 611 ± 213 ng/mL
plasma concentrations transiently higher in LV than in PA (summary) [4]: ~2.5 fold
plasma levels higher in LV than in systemic venous circulation [4]: ~2 fold
plasma concentrations transiently higher in PA than in LV (summary) ([4]; iv): ~3.5 fold
time after administration when LV and PA concentrations were nearly equal ([4]; iv): 4 to 10 min
elimination t1/2β ([5]; both, human): 540 to 720 min
Cmax of the two excluded subjects ([5]; both, human, 40 mg): 43.5 ng/mL
Cmax of the two excluded subjects ([5]; both, human, 60 mg): 51.3 ng/mL
Tmax in excluded subjects ([5]; both, human, 60 mg): greater than 15 minutes
Dist. t1/2α [5, 7]: 3.86 (34) min
Elim. t1/2β [5, 7]: 9.87 (25) hours
Dist. t1/2α [5, 8]: 4.19 (39) min
Elim. t1/2β [5, 8]: 9.0 (24) hours
Dist. t1/2α [5, 9]: 3.47 (17) min
Elim. t1/2β [5, 9]: 12.0 (14) hours
dose dependence of Cmax and AUCLast ([5]; human): dose-dependent
dose dependence of distribution phase and elimination half-life ([5]; human): independent of the doses
plasma concentration in subjects with near-equal ΔQRS (12.0 to 16 msec) ([5]; human): 85 ± 40.3 ng/mL
Tmax (min after EOI) ([5]; human, inhaled or intranasal, 30 mg): 0.5 (0, 1) min
plasma concentration in subjects with near-equal ΔQRS (12.0 to 16 msec) ([5]; human, iv): 222 ± 23 ng/mL
Tmax (min after EOI) ([5]; human, iv, 2 mg/kg): 1 (0, 60) min
dose proportionality of venous plasma concentrations [5]: near dose proportionality
venous plasma concentration-time curves, inhaled vs IV ([5]; 2 mg/kg): similar
concentration-time profile curves, IV normalized to 30 mg vs inhaled 30 mg eTLD ([5]; iv): near-identical
half-life (clinical; both): 3.5 to 4.2 min
half-life (clinical; inhaled or intranasal, 30 mg): 4.67 min
Tmax (clinical; inhaled or intranasal, 30 mg): ≤ 1 min
half-life (clinical; iv, 2 mg/kg): 4.28 min
Tmax (clinical; iv, 2 mg/kg): 1 to 60 min
SMILES: O=C(NCC1CCCCN1)c1cc(OCC(F)(F)F)ccc1OCC(F)(F)F (stereo not shown) [flecainide]
effects in BP, VR and LV dP/dtmax upon conversion, IV vs IT ([1]; FIG. 69): Flecainide given IV caused greater effects
dogs converted from AF to NSR ([1]; IT): 6/6
representative ECG: conversion of AF to NSR ([1]; IT 0.75 mg/kg (FIGS. 68A-D)): conversion of AF to NSR
Time to NSR, individual animals ([1]; IT, cumulative IT dose 0.75 mg/kg): 12 s and 23 s and 62 s
Time to NSR, individual animals ([1]; IT, cumulative IT dose 0.75 (0.25 + 0.5) mg/kg): 147 s and 52 s
Time to NSR, individual animals ([1]; IT, cumulative IT dose 1.0 (0.75 + 0.25) mg/kg): 83 s
Time to NSR, Mean ± SEM ([1]; IT, mean dose 0.79 ± 0.04 mg/kg, 6 dogs, 0.04 mg/kg): 63 ± 18 s
dogs converted from AF to NSR ([1]; IV bolus): 2/2
time to conversion of AF to NSR ([1]; IV bolus): 29 s
sufficiency of LV (left atrium) levels to terminate AF ([1]; pulmonary delivery): sufficient to rapidly terminate AF
magnitude of QRS prolongation (healthy volunteers; 20 mg eTLD): 3.0 ms
magnitude of QRS prolongation (healthy volunteers; 40 mg eTLD): 8.2 ms
magnitude of QRS prolongation (healthy volunteers; 60 mg eTLD): 16 ms
difference of QRS interval duration from pre-dose baseline (healthy volunteers; 2 to 24 hours post-inhalation of 30 mg eTLD, baseline 78±2 msec): < 2 ms
PR interval (healthy volunteers; 8 and 24 hours post-IV infusion): fully returned to pre-drug baseline
QRS interval duration (healthy volunteers; 30 min after completion of inhalation, 20-60 mg eTLD): returned to near pre-dose levels
PR interval longer than pre-drug baseline (healthy volunteers; 2 hours and beyond post-oral IH flecainide): approximately 2 msec
PR interval (healthy volunteers; 2 hours and beyond post-oral IH flecainide, baseline 158.5 msec): 160 ms
QRS interval duration longer than baseline (healthy volunteers; 2 hours following IV infusion, baseline 78±2 msec): 12.5 ms
PR interval longer than pre-drug baseline (healthy volunteers; 2 hours post-IV infusion, baseline 161±3 msec): ~12 ms
QRS interval duration longer than baseline (healthy volunteers; 24 hours following IV infusion): ~7 ms
mean ΔPR (healthy volunteers; Cohort 1, 20 mg eTLD, 1 minute post-dosing): -6 ms
mean ΔPR (healthy volunteers; Cohort 1, 20 mg eTLD, 3 minutes post-dosing): -4.5 ms
mean ΔPR (healthy volunteers; Cohort 1, 20 mg eTLD, 10 minutes to 4 hours after dosing): smaller than −3.0 msec
mean ΔQRS (healthy volunteers; Cohort 1, 20 mg eTLD, between 1 and 3 minutes after end of inhalation): small increase
QRS duration (healthy volunteers; Cohort 2, 40 mg eTLD, between 1 and 3 minutes post-dosing): transient increase
time of maximal increase in QRS interval duration (healthy volunteers; Cohort 2, 40 mg eTLD, majority of subjects): 1 min
prolongation in PR interval duration (healthy volunteers; 1 to 5 min): ~5 ms
prolongation in PR interval duration (healthy volunteers; 10 and 15 minutes): up to 12 msec
non-specific intraventricular conduction delay (healthy volunteers; Cohort 5, IV infusion): 3 of 6 subjects
maximal increase in QRS interval duration, mean (±SEM) (healthy volunteers; Cohort 5, IV infusion 2 mg/kg): 34.2 ± 2.4 ms
duration of QRS widening (healthy volunteers; Cohort 5, inhalation): 15 to 30 min
maximal increase in QRS interval duration, mean (±SEM) (healthy volunteers; Cohort 5, inhalation 30 mg eTLD): 12.4 ± 2.6 ms
duration of QRS widening (healthy volunteers; Cohort 5, intravenous): > 60 min
non-specific intraventricular conduction delay (healthy volunteers; Cohort 5, oral inhalation eTLD 30 mg): not observed
duration of intraventricular conduction delay (healthy volunteers; IV 2 mg/kg, 10 min infusion (FIG. 34)): 5 to 10 min
maximal PR interval prolongation (healthy volunteers; IV infusion 2 mg/kg): 25 ms
T-wave morphology (healthy volunteers; IV infusion 2 mg/kg (FIG. 36)): T-wave notching
lower plasma concentration by inhalation for QRS prolongation of magnitude achieved by IV (6.2/2.7) (healthy volunteers; Part B): 2.3 fold
maximal QRS interval prolongation (healthy volunteers; eTLD 20 mg): 3.5±1.0
smaller change in QRS interval duration, inhalation vs IV infusion (healthy volunteers; eTLD 30 mg vs ~150 mg IV): 2.7 fold
maximal QRS interval prolongation (healthy volunteers; eTLD 40 mg): 10±1.5
maximal QRS interval prolongation (healthy volunteers; eTLD 60 mg): 16±1.4
PR interval (healthy volunteers; end of IV infusion 2 mg/kg, 164±1 msec 45 min prior): 187 ± 6 ms
T-wave morphology (healthy volunteers; inhalation 20, 30, 40 mg eTLD): No changes
lower plasma level following inhalation at similar ΔQRS (healthy volunteers; inhalation vs 5 min into IV infusion): 2.6 fold
PR interval prolongation from start of inhalation (healthy volunteers; inhaled 30 mg eTLD, 5 min after completion of inhalation): 12 ms
changes of PR interval duration (healthy volunteers; inhaled 20 or 40 mg eTLD): Minimal or no changes
temporal relation between plasma concentration and ΔQRS (healthy volunteers; non-steady state, IV and inhalation): changes in QRS interval duration lag those of the peripheral venous concentrations
maximal PR interval prolongation (healthy volunteers; oral inhalation 30 mg eTLD): 12 ms
maximal decrease in QRS amplitude (average of several tracings) (healthy volunteers; subject R222, 40 mg eTLD): ~480 μV
maximal increase in QRS duration (average of several tracings) (healthy volunteers; subject R222, 40 mg eTLD): ~9 ms
increase in QRS duration (QRSd) (healthy volunteers; subject R222, 40 mg eTLD, 1 minute post-dosing): 10 ms
decrease in amplitude of the R-wave (QRSa) (healthy volunteers; subject R222, 40 mg eTLD, 3 min post-dosing): 400 μV
reduction of AF duration ([2]; IT 0.75 mg/kg vs no-drug): 50%
time to conversion of AF to normal sinus rhythm ([2]; IT 0.75 mg/kg, n=3, no-drug 16.2±0.9): 8.1 ± 1.0 min
AF conversion in representative electrograms, time after IT flecainide ([2]; IT 1.5 mg/kg (FIG. 65)): 5 min
shortening in AF duration ([2]; IT 1.5 mg/kg vs no drug): 72%
time to conversion of AF to normal sinus rhythm (mean±SEM) ([2]; IT 1.5 mg/kg, n=5, no drug 12.3±1.9 min): 3.4 ± 0.3 min
dominant frequency of AF ([2]; IT 0.75 and 1.5 mg/kg): reduced the dominant frequency of AF
relation of AF duration to dose ([2]; IT 0.75 and 1.5 mg/kg): AF duration correlated with flecainide dose
MAP and ventricular rate after conversion ([2]; IT 1.5 or 0.75 mg/kg): restored MAP and ventricular rate to baseline values
effectiveness in rapidly converting AF to normal sinus rhythm ([2]; IT 1.5 or 0.75 mg/kg): 100%
recurrence of AF after restoration of sinus rhythm ([6]; 30-min window of observation): no recurrence of AF occurred
reduction in AF duration from the untreated condition ([6]; IT 1.5 mg/kg): 73%
AF duration, mean ([6]; IT 1.5 mg/kg): 3 ± 0.2 min
AF duration, mean ([6]; IT 1.5 mg/kg, listed as Flecainide): 3 min
AF duration, individual pigs ([6]; IT 1.5 mg/kg, pigs 239, 236, 238, no drug 12, 10, 12): 3 min (2×) and 4 min
